{"source": "paper PMC7824897", "about": "“Selection of the First ^99mTc-Labelled Somatostatin Receptor Subtype 2 Antagonist for Clinical Translation—Preclinical Assessment of Two Optimized Candidates” (Pharmaceuticals, 2020)", "key": {"[1]": {"parameters": "species or system human", "excerpt": "To account for various possible locations of the tumour, we used two S-values. One was the value for the liver and is representative for the liver lesions. Other was the “average abdominal S-value”, which was the average S-value for the following organs: stomach, liver, gallbladder, spleen, pancreas, small intestine, kidneys, large intestine, and adrenal glands. Estimated dose to various organs, average total body dose and effective dose are summarized in Table 3 for both radiotracers and two typical tumour locations.\nDosimetric calculations were based on the biodistribution of [^99mTc]Tc-TECANT-1 and [^99mTc]Tc-TECANT-2 (Table 3). […] Percent of injected activity per organ in a human model was evaluated according to the animal data extrapolation model:(2) (%IA/organ)human=[(%IA/g)mouse×Mmouse(g)]×(m(g)/M(kg))human\nHere m is the organ mass and M is the total body weight of mouse or human. Average total weight of the mouse was measured, while human phantom has the total weight of 73 kg. The %IA/g and %IA/organ is the percentage of the injected activity concentration (i.e., per gram of tissue) and per organ, respectively. For the tumour, we assumed that the percent of injected activity uptake into the tumour is the same for mouse and human.\nSubsequently, percentage of the injected activity per organ was folded with the decay curve of ^99mTc and interpolated with the exponential function. The interpolation function was used to estimate initial %ID/organ and the time-integrated activity concentration (TIAC). Absorbed dose per injected activity for various organs was calculated with the TIAC factors and S-values for a standard person from the OpenDose project. Effective dose was evaluated according to the ICRP 103 recommendations.\nWe also assumed that the remaining activity from the organs and tumour ends up in the bladder."}, "[2]": {"assay": "in vivo", "details": "female, mouse, 20 pmol, total radioactivity"}, "[3]": {"target": "T1, HEK-SST2 cells (human SST2 receptor) (Homo sapiens, UniProt P30874)", "T1 construct": "expressed in transfected cells; host or cells: HEK293 (HEK-SST2), provided by Prof; Stefan Schulz, Jena University Hospital", "T1 sequence (P30874 whole entry)": "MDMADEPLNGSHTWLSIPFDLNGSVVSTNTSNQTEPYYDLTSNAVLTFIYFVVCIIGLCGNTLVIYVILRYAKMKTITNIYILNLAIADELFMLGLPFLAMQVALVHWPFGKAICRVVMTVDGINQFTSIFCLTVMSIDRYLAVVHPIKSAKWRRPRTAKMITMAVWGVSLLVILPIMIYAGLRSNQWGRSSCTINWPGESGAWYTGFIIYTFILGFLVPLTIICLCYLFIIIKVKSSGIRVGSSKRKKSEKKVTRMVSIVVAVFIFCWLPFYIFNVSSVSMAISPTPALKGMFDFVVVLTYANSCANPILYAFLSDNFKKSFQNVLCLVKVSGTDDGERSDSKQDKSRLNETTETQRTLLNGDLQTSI", "assay": "Dissociation of cell-surface bound radiotracer with or without competitor", "assay_type": "cell-based"}, "[4]": {"target": "T1, HEK-SST2 cells (human SST2 receptor)", "assay": "Internalization and cell-surface binding in HEK-SST2 cells", "assay_type": "cell-based", "details": "37 °C"}, "[5]": {"assay_type": "physicochemical", "details": "pH 7.4", "experimental": "Determination of the distribution coefficient (log D) was performed by the shake-flask method in 1:1 mixture of octanol/Phosphate buffered saline (PBS). Then, 50 µL of [^99mTc]Tc-TECANT-1 or [^99mTc]Tc-TECANT-2 solution was diluted up to 500 µL with PBS (pH 7.4; 8 mM phosphate). Next, 20 µL of this solution was added to six eppendorf tubes, each containing 500 µL octanol and 480 µL PBS. The samples were vortexed for 15 min at 1400 rpm followed by centrifugation for 2 min at 4500 rpm. Aliquots of 100 µL from each phase were taken and measured in a γ-counter. The log D was calculated as the average of the logarithmic values (n = 3, six technical replicates) of the ratio between the radioactivity in the octanol and the PBS phase."}, "[6]": {"details": "athymic nude-Foxn1^nu/Foxn1^+, Biodistribution Heart"}, "[7]": {"details": "athymic nude-Foxn1^nu/Foxn1^+, Biodistribution Liver"}, "[8]": {"details": "athymic nude-Foxn1^nu/Foxn1^+, Biodistribution Lung"}, "[9]": {"details": "athymic nude-Foxn1^nu/Foxn1^+, Biodistribution Pancreas"}, "[10]": {"details": "athymic nude-Foxn1^nu/Foxn1^+, Biodistribution Spleen"}, "[11]": {"details": "athymic nude-Foxn1nu/Foxn1+, Biodistribution Adrenals"}, "[12]": {"details": "athymic nude-Foxn1nu/Foxn1+, Biodistribution Blood"}, "[13]": {"details": "athymic nude-Foxn1nu/Foxn1+, Biodistribution Bone"}, "[14]": {"details": "athymic nude-Foxn1nu/Foxn1+, Biodistribution HEK-SST2 (+) tumour uptake"}, "[15]": {"details": "athymic nude-Foxn1nu/Foxn1+, Biodistribution Intestine"}, "[16]": {"details": "athymic nude-Foxn1nu/Foxn1+, Biodistribution Kidneys"}, "[17]": {"details": "athymic nude-Foxn1nu/Foxn1+, Biodistribution Muscle"}, "[18]": {"details": "athymic nude-Foxn1nu/Foxn1+, Biodistribution Pituitary"}, "[19]": {"details": "athymic nude-Foxn1nu/Foxn1+, Biodistribution Stomach"}}}
{"smiles": "C[C@@H](O)[C@@H]1NC(=O)[C@H](CCCCN)NC(=O)[C@@H](Cc2c[nH]c3ccccc23)NC(=O)[C@H](Cc2ccc(O)cc2)NC(=O)[C@H](NC(=O)[C@H](Cc2ccc(Cl)cc2)NC(=O)C(CNCCN)CNCCN)CSSC[C@@H](C(=O)N[C@H](Cc2ccc(O)cc2)C(N)=O)NC1=O", "note": "[[^99mTc]Tc-TECANT-2, metal not drawn]", "values": [{"measurement": "Average total body dose", "setting": "[1]", "result": 3.3, "unit": "μGy/MBq"}, {"measurement": "Dose Bone", "setting": "[1]", "result": 4.0, "unit": "μGy/MBq"}, {"measurement": "Dose Muscle", "setting": "[1]", "result": 2.6, "unit": "μGy/MBq"}, {"measurement": "Dose Red marrow", "setting": "[1]", "result": 3.4, "unit": "μGy/MBq"}, {"measurement": "Dose Small intestine wall", "setting": "[1]", "result": 1.9, "unit": "μGy/MBq"}, {"measurement": "biological half-life of clearance of remaining activity (rest of the body) to the bladder", "setting": "[1]", "result": 13.3, "unit": "h"}, {"measurement": "effective dose", "setting": "[1]", "result": 4.3, "unit": "mSv"}, {"measurement": "tissue uptake at 1 h", "setting": "[2]; [6]", "result": "1.64 ± 0.6", "unit": "%ID/g"}, {"measurement": "tissue uptake at 4 h", "setting": "[2]; [6]", "result": "0.26 ± 0.05", "unit": "%ID/g"}, {"measurement": "tissue uptake at 24 h", "setting": "[2]; [6]", "result": "0.05 ± 0.01", "unit": "%ID/g"}, {"measurement": "tissue uptake at 1 h", "setting": "[2]; [7]", "result": "5.38 ± 1.36", "unit": "%ID/g"}, {"measurement": "tissue uptake at 4 h", "setting": "[2]; [7]", "result": "3.72 ± 0.92", "unit": "%ID/g"}, {"measurement": "tissue uptake at 24 h", "setting": "[2]; [7]", "result": "1.07 ± 0.24", "unit": "%ID/g"}, {"measurement": "tissue uptake at 1 h", "setting": "[2]; [8]", "result": "17 ± 5.75", "unit": "%ID/g"}, {"measurement": "tissue uptake at 4 h", "setting": "[2]; [8]", "result": "2.52 ± 0.53", "unit": "%ID/g"}, {"measurement": "tissue uptake at 24 h", "setting": "[2]; [8]", "result": "0.3 ± 0.05", "unit": "%ID/g"}, {"measurement": "tissue uptake at 1 h", "setting": "[2]; [9]", "result": "16.4 ± 4.53", "unit": "%ID/g"}, {"measurement": "tissue uptake at 4 h", "setting": "[2]; [9]", "result": "1.96 ± 0.58", "unit": "%ID/g"}, {"measurement": "tissue uptake at 24 h", "setting": "[2]; [9]", "result": "0.12 ± 0.05", "unit": "%ID/g"}, {"measurement": "tissue uptake at 1 h", "setting": "[2]; [10]", "result": "1.61 ± 0.46", "unit": "%ID/g"}, {"measurement": "tissue uptake at 4 h", "setting": "[2]; [10]", "result": "0.55 ± 0.15", "unit": "%ID/g"}, {"measurement": "tissue uptake at 24 h", "setting": "[2]; [10]", "result": "0.24 ± 0.06", "unit": "%ID/g"}, {"measurement": "tissue uptake at 1 h", "setting": "[2]; [11]", "result": "5.14 ± 1.79", "unit": "%ID/g"}, {"measurement": "tissue uptake at 4 h", "setting": "[2]; [11]", "result": "1.25 ± 0.33", "unit": "%ID/g"}, {"measurement": "tissue uptake at 24 h", "setting": "[2]; [11]", "result": "0.73 ± 0.2", "unit": "%ID/g"}, {"measurement": "tissue uptake at 1 h", "setting": "[2]; [12]", "result": "1.8 ± 0.44", "unit": "%ID/g"}, {"measurement": "tissue uptake at 4 h", "setting": "[2]; [12]", "result": "0.23 ± 0.05", "unit": "%ID/g"}, {"measurement": "tissue uptake at 24 h", "setting": "[2]; [12]", "result": "0.03 ± 0.01", "unit": "%ID/g"}, {"measurement": "tissue uptake at 1 h", "setting": "[2]; [13]", "result": "1.67 ± 0.94", "unit": "%ID/g"}, {"measurement": "tissue uptake at 4 h", "setting": "[2]; [13]", "result": "0.41 ± 0.14", "unit": "%ID/g"}, {"measurement": "tissue uptake at 24 h", "setting": "[2]; [13]", "result": "0.2 ± 0.19", "unit": "%ID/g"}, {"measurement": "tissue uptake at 1 h", "setting": "[2]; [14]", "result": "19.1 ± 4.47", "unit": "%ID/g"}, {"measurement": "tissue uptake at 4 h", "setting": "[2]; [14]", "result": "28.4 ± 4.84", "unit": "%ID/g"}, {"measurement": "tissue uptake at 24 h", "setting": "[2]; [14]", "result": "11 ± 4.69", "unit": "%ID/g"}, {"measurement": "tissue uptake at 4 h", "setting": "[2]; athymic nude-Foxn1nu/Foxn1+, Biodistribution HEK-SST2 (−) tumour uptake", "result": "0.38 ± 0.13", "unit": "%ID/g"}, {"measurement": "tissue uptake at 1 h", "setting": "[2]; [15]", "result": "4.05 ± 1.12", "unit": "%ID/g"}, {"measurement": "tissue uptake at 4 h", "setting": "[2]; [15]", "result": "0.86 ± 0.4", "unit": "%ID/g"}, {"measurement": "tissue uptake at 24 h", "setting": "[2]; [15]", "result": "0.31 ± 0.17", "unit": "%ID/g"}, {"measurement": "tissue uptake at 1 h", "setting": "[2]; [16]", "result": "43.6 ± 11.4", "unit": "%ID/g"}, {"measurement": "tissue uptake at 4 h", "setting": "[2]; [16]", "result": "25.9 ± 5.23", "unit": "%ID/g"}, {"measurement": "tissue uptake at 24 h", "setting": "[2]; [16]", "result": "3.42 ± 1.44", "unit": "%ID/g"}, {"measurement": "tissue uptake at 1 h", "setting": "[2]; [17]", "result": "0.69 ± 0.22", "unit": "%ID/g"}, {"measurement": "tissue uptake at 4 h", "setting": "[2]; [17]", "result": "0.15 ± 0.04", "unit": "%ID/g"}, {"measurement": "tissue uptake at 24 h", "setting": "[2]; [17]", "result": "0.06 ± 0.03", "unit": "%ID/g"}, {"measurement": "tissue uptake at 1 h", "setting": "[2]; [18]", "result": "4.74 ± 1.5", "unit": "%ID/g"}, {"measurement": "tissue uptake at 4 h", "setting": "[2]; [18]", "result": "1.21 ± 0.86", "unit": "%ID/g"}, {"measurement": "tissue uptake at 24 h", "setting": "[2]; [18]", "result": "2.12 ± 1.36", "unit": "%ID/g"}, {"measurement": "tissue uptake at 1 h", "setting": "[2]; [19]", "result": "14.6 ± 4.89", "unit": "%ID/g"}, {"measurement": "tissue uptake at 4 h", "setting": "[2]; [19]", "result": "2.17 ± 0.39", "unit": "%ID/g"}, {"measurement": "tissue uptake at 24 h", "setting": "[2]; [19]", "result": "0.45 ± 0.08", "unit": "%ID/g"}, {"measurement": "estimated dissociation half-life", "setting": "[3]; absence of competitor", "result": 40.3, "unit": "min"}, {"measurement": "total binding remaining (dissociation assay)", "setting": "[3]; after 4 h, 37 °C, absence of competitor", "result": "27.2 ± 6.3", "unit": "%"}, {"measurement": "estimated dissociation half-life", "setting": "[3]; presence of competitor", "result": 7.5, "unit": "min"}, {"measurement": "bound fraction still remaining in the cells", "setting": "[3]; presence of excess of the competitor, 37 °C", "result": "1.1 ± 0.1", "unit": "%"}, {"measurement": "internalization (internalized fraction)", "setting": "[4]; 30 min", "result": "4.4 ± 0.5", "unit": "%"}, {"measurement": "internalization (internalized fraction)", "setting": "[4]; 4 h", "result": "11.7 ± 1.4", "unit": "%"}, {"measurement": "cell surface binding", "setting": "[4]; 4 h, % of total radioactivity added", "result": "36.9 ± 8.5", "unit": "%"}, {"measurement": "logD", "setting": "[5]", "result": "-1.63 ± 0.16"}]}
